# Assays:
# Acetylcholinesterase = Acetylcholinesterase (Electrophorus electricus, UniProt O42275)
# Description: Inhibition of electric eel AChE by Ellman's method
# Butyrylcholinesterase = Butyrylcholinesterase (Equus caballus, UniProt Q9N1N9)
# Description: Inhibition of equine BChE by Ellman's method
# [1] = Inhibition of amyloid beta (1-42) self-mediated aggregation at 20 uM by thioflavin T fluorescence method
# Acetylcholinesterase, sequence (O42275 whole entry): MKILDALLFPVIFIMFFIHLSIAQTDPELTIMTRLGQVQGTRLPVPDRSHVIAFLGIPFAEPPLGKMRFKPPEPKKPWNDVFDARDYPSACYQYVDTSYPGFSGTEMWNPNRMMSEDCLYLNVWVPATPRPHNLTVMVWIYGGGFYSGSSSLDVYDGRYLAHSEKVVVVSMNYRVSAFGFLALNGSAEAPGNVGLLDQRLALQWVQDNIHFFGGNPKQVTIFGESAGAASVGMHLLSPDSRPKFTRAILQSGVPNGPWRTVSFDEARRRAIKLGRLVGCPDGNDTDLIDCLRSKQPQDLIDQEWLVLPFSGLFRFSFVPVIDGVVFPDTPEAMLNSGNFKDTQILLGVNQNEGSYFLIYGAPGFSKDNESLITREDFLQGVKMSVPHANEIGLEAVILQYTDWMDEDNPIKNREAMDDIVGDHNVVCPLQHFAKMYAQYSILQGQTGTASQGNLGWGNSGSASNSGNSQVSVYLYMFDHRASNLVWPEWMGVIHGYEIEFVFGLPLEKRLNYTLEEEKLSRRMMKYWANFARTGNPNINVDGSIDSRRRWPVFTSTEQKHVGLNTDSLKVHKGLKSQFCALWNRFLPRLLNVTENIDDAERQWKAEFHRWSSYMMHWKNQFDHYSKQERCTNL
# Butyrylcholinesterase, sequence (Q9N1N9 whole entry): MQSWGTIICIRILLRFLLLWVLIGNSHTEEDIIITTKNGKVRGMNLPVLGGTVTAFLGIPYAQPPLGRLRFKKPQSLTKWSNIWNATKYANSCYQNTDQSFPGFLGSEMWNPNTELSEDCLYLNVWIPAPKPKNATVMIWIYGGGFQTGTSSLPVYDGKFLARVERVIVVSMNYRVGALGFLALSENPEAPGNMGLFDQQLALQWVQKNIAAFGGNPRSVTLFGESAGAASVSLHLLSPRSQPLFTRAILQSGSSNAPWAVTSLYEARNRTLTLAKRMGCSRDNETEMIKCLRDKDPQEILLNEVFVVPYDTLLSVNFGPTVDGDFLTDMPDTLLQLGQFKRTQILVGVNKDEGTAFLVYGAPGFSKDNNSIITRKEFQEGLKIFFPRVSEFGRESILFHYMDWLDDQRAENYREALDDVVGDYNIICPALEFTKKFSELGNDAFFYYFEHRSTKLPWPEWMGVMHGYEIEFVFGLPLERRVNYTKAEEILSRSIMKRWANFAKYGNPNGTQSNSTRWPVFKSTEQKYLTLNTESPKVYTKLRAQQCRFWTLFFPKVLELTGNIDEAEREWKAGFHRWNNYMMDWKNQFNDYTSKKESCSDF
SMILES,IC50 (Acetylcholinesterase) [nM],IC50 (Butyrylcholinesterase) [nM],inhibition [1] [%]
COc1cc(CNCCCCCCCCNc2c3c(nc4ccccc24)CCCC3)cc(OC)c1OC,9.77,3.38,–
COc1cc(CNCCCCCCCNc2c3c(nc4ccccc24)CCCC3)cc(OC)c1OC,17.3,3.55,–
COc1cc(CNCCCCCCNc2c3c(nc4ccccc24)CCCC3)cc(OC)c1OC,22.4,2.59,–
COc1cc(CNCCCCCNc2c3c(nc4ccccc24)CCCC3)cc2c1OCO2,78.6,29.8,63.1
COc1ccc(CNCCCCCCCCCNc2c3c(nc4ccccc24)CCCC3)cc1OC,25.1,5.67,–
COc1ccc(CNCCCCCCNc2c3c(nc4ccccc24)CCCC3)cc1OC,30.9,2.68,–
COc1ccc(CNCCCCCCCCNc2c3c(nc4ccccc24)CCCC3)cc1OC,11.3,5.57,–
COc1cc(CNCCCCCCCCNc2c3c(nc4ccccc24)CCCC3)cc2c1OCO2,7.98,7.94,65.2
COc1ccc(CNCCCCCCCNc2c3c(nc4ccccc24)CCCC3)cc1OC,24,5.51,–
COc1cc(CNCCCCCCCCCNc2c3c(nc4ccccc24)CCCC3)cc(OC)c1OC,20.2,4.73,–
COc1cc(CNCCCCCCCCCNc2c3c(nc4ccccc24)CCCC3)cc2c1OCO2,18.7,11.4,68.5
COc1cc(CNCCCCCCNc2c3c(nc4ccccc24)CCCC3)cc2c1OCO2,20.5,5.19,67.1
COc1cc(CNCCCCNc2c3c(nc4ccccc24)CCCC3)cc2c1OCO2,113,46.3,63.8
COc1cc(CNCCCCCCCNc2c3c(nc4ccccc24)CCCC3)cc2c1OCO2,18.4,9.73,65
